PubChem BioAssay (NCI)
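Where inhibition never reached the appropriate level, the endpoint shown equals the highest concentration tested. Otherwise, values were interpolated linearly from a five-concentration, 48-hour dose response in 96-well plates. TGI: concentration producing complete growth inhibition.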

Legend:
Assay in all cases: NCI tumour cell line growth inhibition, 48 h
[1] = tested on: 786-0 renal
[2] = tested on: A498 renal
[3] = tested on: A549 NSCLC
[4] = tested on: ACHN renal
[5] = tested on: COLO 205 colon
[6] = tested on: DLD-1 colon
[7] = tested on: DMS 114 small cell lung
[8] = tested on: EKVX NSCLC
[9] = tested on: HCC-2998 colon
[10] = tested on: HCT-116 colon
[11] = tested on: HCT-15 colon
[12] = tested on: HL-60(TB) leukemia
[13] = tested on: HOP-18 NSCLC
[14] = tested on: HOP-62 NSCLC
[15] = tested on: HOP-92 NSCLC
[16] = tested on: HT29 colon
[17] = tested on: IGROV1 ovarian
[18] = tested on: K-562 leukemia
[19] = tested on: KM12 colon
[20] = tested on: KM20L2 colon
[21] = tested on: LXFL 529 NSCLC
[22] = tested on: M19-MEL melanoma
[23] = tested on: MALME-3M melanoma
[24] = tested on: MOLT-4 leukemia
[25] = tested on: NCI-H226 lung
[26] = tested on: NCI-H23 lung
[27] = tested on: NCI-H460 lung
[28] = tested on: NCI-H522 lung
[29] = tested on: OVCAR-3 ovarian
[30] = tested on: OVCAR-4 ovarian
[31] = tested on: OVCAR-8 ovarian
[32] = tested on: RPMI-8226 leukemia
[33] = tested on: RXF 393 renal
[34] = tested on: RXF-631 renal
[35] = tested on: SF-268 CNS
[36] = tested on: SF-295 CNS
[37] = tested on: SF-539 CNS
[38] = tested on: SK-MEL-2 melanoma
[39] = tested on: SK-MEL-28 melanoma
[40] = tested on: SN12C renal
[41] = tested on: SNB-19 CNS
[42] = tested on: SNB-75 CNS
[43] = tested on: SNB-78 CNS
[44] = tested on: SR leukemia
[45] = tested on: SW-620 colon
[46] = tested on: TK-10 renal
[47] = tested on: U251 CNS
[48] = tested on: UACC-257 melanoma
[49] = tested on: UO-31 renal
[50] = tested on: XF 498 CNS
[51] = tested on: CAKI-1 renal
[52] = tested on: CCRF-CEM leukemia
[53] = tested on: DMS 273 small cell lung
[54] = tested on: LOX IMVI melanoma
[55] = tested on: OVCAR-5 ovarian
[56] = tested on: SK-MEL-5 melanoma
[57] = tested on: SK-OV-3 ovarian
[58] = tested on: UACC-62 melanoma

Measured: TGI

CCOC(=O)Cc1csc(Nc2ccc(OCC)cc2)n1
not listed: [51] | [52] | [53] | [54] | [55] | [56] | [57] | [58]
> 100 µM: all other assays above

N#CCCN(CCC#N)c1ccc(/C=C(\NC(=O)c2cc([N+](=O)[O-])ccc2Cl)C(=O)Nc2ccccc2)cc1
not listed: [1] | [2] | [9] | [12] | [16] | [23] | [27] | [34] | [42] | [45] | [48]
> 100 µM: all other assays above
